Our source for the Ki values is ChEMBL document CHEMBL1148621, “Evaluation of carbon-11-labeled 2beta-carbomethoxy-3beta-[4'-((Z)-2-iodoethenyl)phenyl]nortropane as a potential radioligand for imaging the serotonin transporter by PET” (J Med Chem, 2006).

In experiment [1] the target is Sodium-dependent noradrenaline transporter (Homo sapiens, UniProt P23975). Briefly: Displacement of [3H]nisoxetine from NET.
The target of experiment [2] is Sodium-dependent dopamine transporter (Homo sapiens, UniProt Q01959). Briefly: Displacement of [123I]RTI-55 from DAT. On the technique in general: Loss of bound radioactivity is the signal in a displacement assay; it reports binding, not function.
Sequence of Sodium-dependent dopamine transporter (Q01959 whole entry): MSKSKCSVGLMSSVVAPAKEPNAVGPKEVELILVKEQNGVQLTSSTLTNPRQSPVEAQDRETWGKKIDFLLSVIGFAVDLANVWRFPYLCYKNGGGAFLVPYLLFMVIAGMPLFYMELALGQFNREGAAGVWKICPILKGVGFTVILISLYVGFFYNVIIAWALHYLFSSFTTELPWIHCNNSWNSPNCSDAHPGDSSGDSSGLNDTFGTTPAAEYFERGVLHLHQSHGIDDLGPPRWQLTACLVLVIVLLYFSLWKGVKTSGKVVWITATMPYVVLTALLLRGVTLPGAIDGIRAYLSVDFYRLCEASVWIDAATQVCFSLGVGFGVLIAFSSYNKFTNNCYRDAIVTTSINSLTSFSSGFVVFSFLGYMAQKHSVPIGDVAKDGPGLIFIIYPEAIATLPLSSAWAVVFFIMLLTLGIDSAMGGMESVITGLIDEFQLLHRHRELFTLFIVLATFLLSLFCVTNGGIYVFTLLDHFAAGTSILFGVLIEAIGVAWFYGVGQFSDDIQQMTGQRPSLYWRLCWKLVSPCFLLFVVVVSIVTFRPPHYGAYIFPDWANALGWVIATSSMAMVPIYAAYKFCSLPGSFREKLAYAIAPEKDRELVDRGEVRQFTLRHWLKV

Sequence of Sodium-dependent noradrenaline transporter (P23975 whole entry): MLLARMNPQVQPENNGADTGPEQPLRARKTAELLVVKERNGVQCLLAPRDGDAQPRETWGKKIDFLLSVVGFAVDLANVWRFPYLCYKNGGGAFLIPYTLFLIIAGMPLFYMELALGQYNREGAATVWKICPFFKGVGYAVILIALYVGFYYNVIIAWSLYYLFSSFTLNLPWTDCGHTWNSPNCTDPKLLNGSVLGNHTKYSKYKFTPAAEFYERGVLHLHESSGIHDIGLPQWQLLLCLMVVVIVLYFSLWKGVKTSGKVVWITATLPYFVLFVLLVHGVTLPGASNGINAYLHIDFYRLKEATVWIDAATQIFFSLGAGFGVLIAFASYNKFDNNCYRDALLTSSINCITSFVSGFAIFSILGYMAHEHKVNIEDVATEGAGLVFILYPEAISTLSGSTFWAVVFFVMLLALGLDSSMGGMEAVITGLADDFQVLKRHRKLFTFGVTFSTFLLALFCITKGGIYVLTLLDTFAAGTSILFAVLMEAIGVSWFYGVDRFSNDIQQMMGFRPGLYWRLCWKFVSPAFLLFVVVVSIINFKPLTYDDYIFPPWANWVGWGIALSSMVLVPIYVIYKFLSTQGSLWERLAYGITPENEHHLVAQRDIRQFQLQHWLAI

Take `COC(=O)C1C2CCC(CC1c1ccc(/C=C\I)cc1)N2` (configuration not stated): the Ki in experiment [1] stood at 15 nM; in experiment [2], 6 nM.

As usually defined, the Ki is a dissociation constant, usually derived from enzyme kinetics or from competition with a known ligand. A high value points to weaker binding.
